Here are results for two compounds from patent publication US20230321199A1, “USES OF PTHrP ANALOGUE IN REDUCING FRACTURE RISK” (Radius Health, Inc., priority 2015, published 2023).

Data set [1] deals with postmenopausal women with osteoporosis. Conditions: in vivo.
Description: (§2) Safety evaluations performed in the ACTIVE trial included physical examinations, vital signs, 12-lead electrocardiograms, or ECGs, clinical laboratory tests and monitoring, and recording of adverse events. Specific safety assessments included pre-dose and post-dose (four hours) determination of serum calcium, determination of creatinine clearance, post-dose ECG assessments at selected visits, and assessments of postural hypotension (60 minutes post-dose) at selected clinic visits.
(§3) The ACTIVE trial also evaluated several potential safety measures, including blood calcium levels, orthostatic hypotension, nausea, dizziness, and injection-site reactions.
Data set [2] shares this test system. To be noted: in vivo. This is another data set of the same source.
Data set [3] shares this test system. Nature of the data set: ACTIVE trial: adverse events. To be noted: 18-month ACTIVE trial.
Description: as §2, §3
For data set [4] the test system is unchanged. Nature of the data set: ACTIVE phase 3 trial: fracture rates and fracture risk over 18 months. It counts as in vivo, human. As for the experimental part:
The ACTIVE phase 3 fracture prevention trial was conducted for abaloparatide in postmenopausal women with osteoporosis who were otherwise healthy. The enrolled subjects were treated with 80 micrograms (μg) of abaloparatide, a matching placebo, or the approved daily dose of 20 μg of teriparatide for 18 months. The ACTIVE trial evaluated fracture rates, fracture risks, BMD, and bone turnover biomarkers (e.g., CTX and P1NP) in all patient groups.
Fracture risk reduction and hazard ratio (HR) were derived from Kaplan-Meier (KM) curve.
The ACTIVE pivotal Phase 3 fracture prevention trial for the PTHrP analogue abaloparatide, Study BA058-05-003 (see ClinicalTrials.gov), was a randomized, double-blind, placebo-controlled trial in postmenopausal osteoporotic women randomized to receive daily doses of one of the following for 18 months: 80 micrograms (μg) of abaloparatide; a matching placebo; or the approved daily dose of 20 μg of teriparatide. Treatment with abaloparatide at a daily dose of 80 μg or placebo remained blinded to all parties throughout the study. Teriparatide used was a proprietary prefilled drug and device combination that could not be repackaged. Therefore, its identity could not be blinded to treating physicians and patients once use began. Study medication was self-administered daily by subcutaneous injection for a maximum of 18 months. All enrolled patients also received calcium and vitamin D supplementation from the time of enrollment until the end of the treatment period. It was recommended to patients that they also continue these supplements through the one-month follow-up period.
The study enrolled otherwise healthy ambulatory women aged 49 to 86 (inclusive) who had been postmenopausal for at least five years, met the study entry criteria, and had provided written informed consent. […] All patients were to be in good general health as determined by medical history, physical examination (including vital signs), and clinical laboratory testing. This study population contained a patient population reflective of the type of severe osteoporosis patients that specialists would be expected to treat in their practices.
(§1) As set forth in the ACTIVE protocol, the primary efficacy endpoint was the number of patients treated with abaloparatide with incident vertebral fractures at the end of treatment as compared to those who received placebo. The pre-specified secondary efficacy parameters included, among other endpoints, reduction in the incidence/risk of non-vertebral fractures; changes in BMD of the spine, hip, and femoral neck from baseline to end of treatment as assessed by DXA and as compared to teriparatide; and the number of hypercalcemic events in abaloparatide treated patients when compared to teriparatide at end of treatment.

For data set [5] the test system is unchanged. Nature of the data set: ACTIVE trial: BMD of lumbar spine, total hip, femoral neck by DXA. It counts as in vivo, human. As for the experimental part: BMD and bone turnover biomarkers (CTX and P1NP) were also evaluated in all patient groups to compare the effects of abaloparatide versus teriparatide.
as §1
Comparative analyses of abaloparatide versus teriparatide were completed on the following BMD secondary endpoints using a Mixed-Effect Model for Repeated Measures (MMRM) method, shown in Table 4 below:
Comparative analyses of the PTHrP analogues abaloparatide and teriparatide were completed on the following BMD secondary endpoints using an ANCOVA approach, shown in Table 5 below: […]

Data set [6] shares this test system. Nature of the data set: Phase 2 dose-finding trial: 24-week BMD by DXA. It counts as in vivo, human. Conditions: 24 weeks; 20 μg daily SC. The text has this: Healthy postmenopausal women between the ages of 55 to 85 (based on a 5-year history of amenorrhea and an elevated serum level of FSH) were enrolled in the study if they met one of the following the following definitions of osteoporosis: • 1) DXA-derived BMD T-score≤−2.5 at the lumbar spine or femoral neck or total hip. • 2) DXA-derived BMD T-score ≤−2.0 with a history of a prior low trauma forearm, humerus, vertebral, sacral, pelvic, hip, femoral, or tibial fracture within the past five years. • 3) DXA-derived BMD T-score ≤−2.0 with an additional osteoporosis risk factor such as age >65 years or strong maternal history of osteoporosis (defined as a fracture related to osteoporosis or osteoporosis itself determined by BMD criteria).
Dual X-ray absorptiometry: DXA scans were obtained at each local site and then sent to a central imaging reader (BioClinica Inc. Newton, PA) where they underwent a quality control review and then analyzed according to each manufacturers guidelines. Scans performed during the treatment period on the same instrument used for the baseline scan were acquired. Each study site performed Instrument Quality Control over time (instrument standardization and phantom calibration) that was reviewed by the central reader.

Data set [7] has the same test system. Nature of the data set: Phase 2 trial: safety, serum calcium, antibody formation. To be noted: 24 weeks; 20 μg daily SC.
Data set [8] has the same test system. Description: Phase 2 trial 24-week extension (48 weeks): BMD and tolerability. Conditions: 20 μg daily SC.

Like-named read-outs stand apart in the source and are kept apart here. Marks after values point to notes of the source that are not given here.

For `CC[C@H](C)[C@H](NC(=O)[C@H](CO)NC(=O)[C@H](CCCCN)NC(=O)CNC(=O)[C@H](CCCCN)NC(=O)[C@H](CC(=O)O)NC(=O)[C@H](Cc1cnc[nH]1)NC(=O)[C@H](CC(C)C)NC(=O)[C@H](CC(C)C)NC(=O)[C@H](CCC(N)=O)NC(=O)[C@H](Cc1cnc[nH]1)NC(=O)[C@H](CCC(=O)O)NC(=O)[C@H](CO)NC(=O)[C@@H](NC(=O)[C@H](C)N)C(C)C)C(=O)N[C@@H](CCC(N)=O)C(=O)N[C@@H](CC(=O)O)C(=O)N[C@@H](CC(C)C)C(=O)N[C@@H](CCCNC(=N)N)C(=O)N[C@@H](CCCNC(=N)N)C(=O)N[C@@H](CCCNC(=N)N)C(=O)N[C@@H](CCC(=O)O)C(=O)N[C@@H](CC(C)C)C(=O)N[C@@H](CC(C)C)C(=O)N[C@@H](CCC(=O)O)C(=O)N[C@@H](CCCCN)C(=O)N[C@@H](CC(C)C)C(=O)N[C@@H](CC(C)C)C(=O)NC(C)(C)C(=O)N[C@@H](CCCCN)C(=O)N[C@@H](CC(C)C)C(=O)N[C@@H](Cc1cnc[nH]1)C(=O)N[C@H](C(=O)N[C@@H](C)C(N)=O)[C@@H](C)O` [abaloparatide, [Glu^22,25, Leu^23,28,31, Aib^29, Lys^26,30]hpTHrP(1-34)NH2], in data set [1], the “AE: Arthralgia” value is on record as 8.6%, the “AE: Back Pain” value came out at 8.5%, the “AE: Constipation” value was 4.5% and the “AE: Dizziness” value is given as 10.0%‡. Besides, in data set [1], the “AE: Headache” value was 7.5%, the “AE: Hypercalcemia (serum albumin-corrected calcium value ≥ 10.7 mg/dL)” value is given as 3.41%^†, the “AE: Hypertension” value is listed as 7.2% and the “AE: Nasopharyngitis” value was found to be 5.8%. Further, in data set [1], the “AE: Nausea” value was found to be 8.3%‡, the “AE: Pain in extremity” value was 4.9%, the “AE: Palpitations” value is recorded as 5.1%‡ and the “AE: Upper respiratory tract infection” value is 8.3%. In addition, in data set [1], the “AE: Urinary tract infection” value was 5.2%. In addition, the “anti-abaloparatide antibody titer in positive patients” value in data set [2] was ≤ 1:20. Moreover, the “AE: Influenza” value in data set [3] came out at 6.3%.

`CC[C@H](C)[C@H](NC(=O)[C@H](CCC(=O)O)NC(=O)[C@H](CO)NC(=O)[C@@H](NC(=O)[C@@H](N)CO)C(C)C)C(=O)N[C@@H](CCC(N)=O)C(=O)N[C@@H](CC(C)C)C(=O)N[C@@H](CCSC)C(=O)N[C@@H](Cc1cnc[nH]1)C(=O)N[C@@H](CC(N)=O)C(=O)N[C@@H](CC(C)C)C(=O)NCC(=O)N[C@@H](CCCCN)C(=O)N[C@@H](Cc1cnc[nH]1)C(=O)N[C@@H](CC(C)C)C(=O)N[C@@H](CC(N)=O)C(=O)N[C@@H](CO)C(=O)N[C@@H](CCSC)C(=O)N[C@@H](CCC(=O)O)C(=O)N[C@@H](CCCN=C(N)N)C(=O)N[C@H](C(=O)N[C@@H](CCC(=O)O)C(=O)N[C@@H](Cc1c[nH]c2ccccc12)C(=O)N[C@@H](CC(C)C)C(=O)N[C@@H](CCCN=C(N)N)C(=O)N[C@@H](CCCCN)C(=O)N[C@@H](CCCCN)C(=O)N[C@@H](CC(C)C)C(=O)N[C@@H](CCC(N)=O)C(=O)N[C@@H](CC(=O)O)C(=O)N[C@H](C(=O)N[C@@H](Cc1cnc[nH]1)C(=O)N[C@@H](CC(N)=O)C(=O)N[C@@H](Cc1ccccc1)C(=O)O)C(C)C)C(C)C` [teriparatide, hPTH(1-34)]: in data set [4], the “hazard ratio, incident clinical fractures, as compared to placebo” value is listed as 0.71 and the “hazard ratio, non-vertebral fractures, as compared to placebo” value is recorded as 0.72. Moreover, the “fracture rate, non-vertebral fractures (rate given with hazard ratio)” value in data set [4] (placebo group 4.7%) was found to be 3.3%. Besides, the “fracture rate, incident clinical fractures (rate given with hazard ratio)” value in data set [4] (placebo group 8.3%) is recorded as 4.8%. In addition, in data set [5] (6 mo), the “Mean Percent Change In BMD From Baseline (ANCOVA), Femoral Neck” value is reported as 0.80%* and the “Mean Percent Change in BMD From Baseline (MMRM), Femoral Neck” value turned out to be 0.87%*. The “Mean Percent Change In BMD From Baseline (ANCOVA), Lumbar Spine” value in data set [5] (12 mo) was determined as 7.40%*. The “subjects with BMD increases of >3% at all three sites” value in data set [5] (12 months) came to 19.8%. Also, in data set [5] (18 months), the “subjects with BMD increases of >3% at all three sites” value is reported as 32.0%. Further, the “subjects with increased BMD of >3% at all three sites (lumbar spine, total hip, femoral neck)” value in data set [5] (month 6) was 6.5%. Besides, in data set [6], the “femoral neck BMD increase (±SD)” value was determined as 1.1±4.6% and the “total hip BMD increase (±SD)” value is 0.5±3.9%. Besides, in data set [3], the “AE: Arthralgia” value stood at 8.6%, the “AE: Back Pain” value was 7.2%‡, the “AE: Constipation” value amounted to 4.2% and the “AE: Dizziness” value was 7.3%. Besides, in data set [3], the “AE: Headache” value stood at 6.2%, the “AE: Hypercalciuria” value worked out at 12.5%‡, the “AE: Hypertension” value is 5.0% and the “AE: Influenza” value is recorded as 4.2%. In data set [3], the “AE: Nasopharyngitis” value worked out at 6.5%, the “AE: Nausea” value came out at 5.1%‡, the “AE: Pain in extremity” value turned out to be 5.1% and the “AE: Palpitations” value turned out to be 1.6%‡. Besides, in data set [3], the “AE: Upper respiratory tract infection” value was found to be 8.9% and the “AE: Urinary tract infection” value turned out to be 5.0%. In data set [7], the incidence of dizziness is reported as 4%. In data set [8] (48 weeks), the “femoral neck BMD increase” value stood at 2.2%, the “lumbar spine BMD increase” value is recorded as 8.6% and the “total hip BMD increase” value is recorded as 1.3%. Further, the “treatment-related TEAEs” value in data set [8] (extension study) came out at 21%.
